{"source": "patent US20180265934A1", "about": "“COINCIDENCE REPORTER GENE SYSTEM” (The United States of America, as represented by the …, priority 2013, published 2018)", "key": {"[1]": {"tested_on": "PARK2 (Parkin) gene expression", "test": "Compound library screening, Parkin coincidence reporter cell line (FLuc-P2A-NLuc in PARK2 locus, BE(2)-M17 cells), 1536-well", "type": "cell-based, human", "conditions": "24 h, titration", "experimental": "Construction of the Parkin coincidence reporter cell line by TALEN-mediated genome editing was carried out as follows. To generate a double-strand cleavage of the genomic DNA in the first codon of the PARK2 gene, constructs encoding transcription activator-like effector nuclease (TALEN) pairs (Right and Left) encoding components of the heterodimeric FokI nuclease were generated as described by Huang et al., Nature Biotechnology, 29: 699-700 (2011). The TALEN pair was designed to generate a double-strand cleavage at or near the first translation codon (ATG) within the Parkin gene. These constructs were transfected with Lipofectamine LTX (Life Technologies) into BE(2)-M17 cells (ATCC) […] along with a GFP-expressing marker plasmid and the coincidence reporter donor plasmid. After 48 hours of incubation in a tissue culture incubator, GFP-positive cells were sorted by FACS analysis and single clones were isolated and expanded. Once sufficient cell populations for each clone were achieved, analysis of correct genomic insertion of the Fluc-P2A-NLuc-PEST-PolyA coincidence reporter cassette that replaced the “ATGATAG” (SEQ ID NO: 362) sequence at the […] of the PARK2 gene exon 1 was ascertained by PCR and DNA sequencing of genomic DNA preparations (QIAGEN).\nCompound library screening in 1536-well plates was carried out as follows. The Parkin coincidence reporter cell line was seeded at a density of 2000 cell/well into white, solid bottom, tissue-culture treated (Greiner Bio-One), 1536-well microplates in a total of 5 μL/well of culture medium. After a 16 hour incubation in a tissue-culture incubator, a compound pin tool (Wako) was used to transfer 20 nL of compound dissolved in DMSO for library plates to the assay plates. Compounds were present in either a 6 or 12-point titration in the library plates. DMSO vehicle, CCCP, and PTC-124 were also added to the designated control well. After a 24 hour incubation in the tissue culture incubator, the volume in each well of both plates was reduced to 2 μL with a microplate aspiration system (BioTek) and then 2 μL of Firefly Luciferase assay reagent (Promega) was added to every well each plate and luminescent signal from each well of each plate was measured on a VIEWLUX plate reader (PerkinElmer). Following the first read, 2 μL of NanoLuc assay reagent (Promega) including a proprietary firefly luciferase inhibitor (to quench the firefly reaction) was added to every well of each plate. After a second 15 minute incubation at room temperature, the NanoLuc signal from each well of each plate was measured on the VIEWLUX. Raw luminescent signal is expressed as a % of the positive control (10 uM CCCP for NanoLuc and 500 nM PTC-124 for FLuc)."}, "[2]": {"tested_on": "cAMP-response element (CRE), adenylyl cyclase signaling", "test": "Compound test, 24-point titration, 4×CRE-driven FLuc-P2A-RLuc (pCI-6.24), 384-well", "type": "cell-based", "conditions": "PTC124 on FLuc, BTS on RLuc; relative to non-treated control", "experimental": "(§1) For the compound test, forskolin, PTC124 and BTS were prepared in a 24-point intraplate titration format and pre-diluted in the cell culture medium. Purified pCI-6.24 construct was transfected into GRIPTITE 293 MSR cells (Life Technologies). Sixteen hours post transfection, cells were trypsinized and then dispensed at 2,000 cells/15 μL/well in 384-well tissue culture treated white/solid bottom plates (Greiner Bio-One North America). Five μL of pre-diluted compound was transferred into assay plates, resulting in a final concentration ranging from 0.027 nM to 227 μM (forskolin) and 0.011 nM to 91 μM (PTC124 and BTS). The assay plates were incubated at 37° C. for 10 hours. FLuc and RLuc activities were then detected using DUAL-GLO reagent (Promega) and a VIEWLUX plate reader (PerkinElmer). Concentration-response curves and concentrations of half-maximal activity (EC50) for each compound were generated by using PRISM 4 software (GraphPad Software, Inc., La Jolla, Calif.)."}, "Parkin expression": {"tested_on": "Parkin expression", "conditions": "previously demonstrated, Bouman et al. 2011; cited from earlier work"}, "[3]": {"tested_on": "cAMP-response element (CRE) / CREB pathway", "test": "LOPAC1280 qHTS, 4×CRE-driven FLuc-P2A-RLuc coincidence reporter (pCI-6.24) in GripTite 293 MSR cells", "type": "cell-based", "conditions": "for EC50: GripTite 293 MSR", "experimental": "This protocol measures bioluminescence derived from both FLuc and RLuc expression from a single assay. […] Sixteen hours after transfection, cells were trypsinized and then dispensed at 2,000 cells/20 μL/well in 384-well tissue culture treated white/solid bottom plates (Greiner Bio-One North America, Monroe, N.C.). The assay plates were incubated at 37° C. for 10 hours before adding the DUAL-GLO detection reagent (Promega). Luminescence from luciferase activity was detected by using a VIEWLUX plate reader (PerkinElmer, Waltham, Mass.).\nSixteen hours after transfection, cells were trypsinized and then dispensed at 500 cells/4 μL/well in 1,536-well tissue culture treated white/solid bottom plates (Greiner Bio-One North America) using a multidrop combi dispenser (Thermo Fisher Scientific). […] The assay plates were incubated at 37° C. for 10 hours before adding the DUAL-GLO detection reagent (3.5 μL+3.5 μL for each well) (Promega). Luminescence from luciferase activity was detected by using VIEWLUX (PerkinElmer). Each experimental plate contained forskolin as a positive control and DMSO as a negative control. Percentage activity was defined as the percentage signal relative to forskolin (100%) and DMSO (0%)."}, "SV40 promoter": {"tested_on": "SV40 promoter", "test": "Compound test, SV40-driven FLuc-P2A-RLuc construct (pCI-6.20)", "type": "cell-based", "conditions": "pCI-6.20 construct", "experimental": "as §1\nThis experiment was repeated with cells transfected with the pCl-6.20 construct, which encoded FLuc-P2A-RLuc under the control of the SV40 […]."}, "p53 RE": {"tested_on": "p53 RE", "test": "FLuc2P-NLucP reporter assay, p53 RE-driven construct (pCI-4.38) in HEK293 cells", "type": "cell-based", "conditions": "10 μM etoposide, 24 h", "experimental": "(§2) The FLuc2P-NLucP reporter assay and compound test was carried out as follows. This protocol measures bioluminescence derived from both FLuc2P and NLucP. The purified DNA construct pCI-4.38 was transfected into HEK293 cells and the cells were cultured as described in Example 1. Sixteen hours after transfection, the cells were trypsinized and then dispensed at 2,000 cells/20 μL/well into two 384-well tissue culture treated white/solid bottom plates (Greiner Bio-One North America). After adding Etoposide (Sigma) or control DMSO, the assay plates were incubated at 37° C. for 24 hours before adding the ONE-GLO or NANO-GLO detection reagents (Promega). Luminescence from luciferase activity was detected by using a VIEWLUX plate reader (PerkinElmer)."}, "ARE": {"tested_on": "ARE", "test": "FLuc2P-NLucP reporter assay, ARE-driven construct (pCI-4.37) in HEK293 cells", "type": "cell-based", "conditions": "100 μM tBHQ, 24 h", "experimental": "as §2, with “A” for “The”, “pCI-4.37” for “pCI-4.38”, “cells.” for “cells and the cells were cultured as described in Example 1.”, “and” for “and then”, “tert-Butylhydroquinone (tBHQ)” for “Etoposide”"}}, "note": "Read-outs that look alike come from different tables or passages of the source."}
{"molecule": "O=C(O)c1cccc(-c2noc(-c3ccccc3F)n2)c1", "note": "[PTC124]", "values": [{"measurement": "coincident reporter response (FLuc and NLuc)", "setting": "[1]", "value": "do not elicit a coincident reporter response"}, {"measurement": "signal obtained through reporter interference", "setting": "[1]", "value": "FLuc signal is obtained through reporter interference"}, {"measurement": "effect on reporter activity by reporter stabilization", "setting": "[2]", "value": "increase the activity of the reporters"}]}
{"molecule": "N#CC(C#N)=NNc1cccc(Cl)c1", "note": "[carbonyl cyanide m-chlorophenyl hydrazone]", "values": [{"measurement": "induction of Parkin expression", "setting": "Parkin expression", "value": "induce Parkin expression"}]}
{"molecule": "C=C[C@@]1(C)CC(=O)[C@]2(O)[C@@]3(C)[C@@H](O)CCC(C)(C)[C@@H]3[C@H](O)[C@H](OC(C)=O)[C@@]2(C)O1", "note": "[cpd 19, Forkskolin]", "values": [{"measurement": "Ratio F/R", "setting": "[3]; FLuc EC50 / RLuc EC50, Table 5", "value": 0.90}, {"measurement": "EC50", "setting": "[3]; 10 h, Table 5, coincident activators, FLuc readout, 10 h, ~4 nM to 57 μM, read-out: FLuc EC50", "value": 1.32, "unit": "µM"}, {"measurement": "EC50", "setting": "[3]; 10 h, Table 5, coincident activators, RLuc readout, 10 h, ~4 nM to 57 μM, read-out: RLuc EC50", "value": 1.47, "unit": "µM"}, {"measurement": "EC50", "setting": "[3]; FLuc readout, 1536 interplate format, read-out: Intraplate Forskolin Control Mean", "value": 0.86, "unit": "µM"}, {"measurement": "EC50", "setting": "[3]; RLuc readout, 1536 interplate format, read-out: Intraplate Forskolin Control Mean", "value": 0.88, "unit": "µM"}, {"measurement": "activity where reporter expression was driven by the SV40 promoter", "setting": "SV40 promoter", "value": "inactive"}]}
{"molecule": "COc1cc([C@@H]2c3cc4c(cc3[C@@H](O[C@@H]3O[C@@H]5CO[C@@H](C)O[C@H]5[C@H](O)[C@H]3O)[C@H]3COC(=O)[C@H]23)OCO4)cc(OC)c1O", "note": "[etoposide, Etoposide]", "values": [{"measurement": "reporter output vs DMSO", "setting": "p53 RE", "value": "greater RLU values"}]}
{"molecule": "CC(C)(C)c1cc(O)ccc1O", "note": "[tBHQ, tert-Butylhydroquinone]", "values": [{"measurement": "reporter output vs DMSO", "setting": "ARE", "value": "greater RLU values"}]}
{"molecule": "Tunicamycin", "values": [{"measurement": "induction of Parkin expression", "setting": "Parkin expression", "value": "induce Parkin expression"}]}
